From patent US20030220310A1, “Epoxy-steroidal aldosterone antagonist and calcium channel blocker combination therapy for treatment of congestive heart failure” (priority 2003, published 2003) come the findings set out here.

Series [1] deals with rats with ligated left anterior descending coronary artery. As to the kind of experiment: Assay D: Myocardial Infarction Rat Model. It is filed as in vivo. As to conditions: combination of calcium channel blocker and epoxymexrenone versus either component alone, after six weeks. How it is done: Assay “D”: Myocardial Infarction Rat Model: Male rats are anesthetized and the heart is exteriorized following a left sided thoracotomy. The left anterior descending coronary artery is ligated with a suture. The thorax is closed and the animal recovers. Sham animals have the suture passed through without ligation. One week prior to the surgery, animals to undergo infarction are divided into separate groups and drug treatment is begun. Groups of animals are administered vehicle, calcium channel blocker alone, epoxymexrenone alone, and combinations of calcium channel blocker and epoxymexrenone, at various doses, as follow: [table] After six weeks, systolic and diastolic blood pressure, left ventricular end diastolic pressure, left ventricular dP/dt, and heart rate are evaluated. The hearts are removed, weighed, measured and fixed in formalin. Collagen content of heart sections are evaluated using computerized imaged image analysis of picrosirius stained sections.

For series [2], the system named is patients with mild to moderate hypertension. In words: Example 19 clinical study: eplerenone versus placebo co-administered with a calcium-channel blocker. It is filed as in vivo, human.
Text: This multicenter, randomized, double-blind, placebo-controlled, placebo run-in, parallel group trial involving a minimum of 120 randomized patients with hypertension (seated diastolic blood pressure [seDBP] ≧95 mmHg and <110 mmHg and seated systolic BP [seSBP] <180 mmHg while taking a CCB) will consist of a one- to two-week pretreatment screening period followed by a two- to four-week single-blind placebo run-in period and an 8-week double-blind treatment period. Eligible patients will be patients currently receiving a CCB as part of their antihypertensive medication. […] The dose will not be changed for patients with adequate BP control. […] If the dose has been increased at Week 2, the patient will be reassessed at Week 6. […] If BP is uncontrolled at Week 6 and the dose has been increased at Week 2 or Week 4, the patient must be withdrawn from the study. If symptomatic hypotension (i.e., lightheadedness, dizziness, or syncope associated with low BP) occurs at any time during the study, or if DBP is ≧110 mmHg or SBP is ≧180 mmHg at any time during the trial, the patient must be withdrawn. Patients will receive study medication for a total of 8 weeks.
Patients will return to the clinic for evaluations at Weeks 0 (baseline), 2, 4, 6, 8, and 9. Heart rate, BP, adverse events and concomitant medication will be assessed at each visit. Hematology and biochemistry evaluations and urinalysis for safety will be at Weeks 0, 8, and 9. Serum potassium levels will be determined at Weeks 0 (baseline), 2, 4, 6, 8, and 9. Plasma renin, serum aldosterone, and plasma cortisol will be determined at Weeks 0 and 8. A 12-lead electrocardiogram and physical examination will be done at screening and at Week 9.
Eligible patients will be either currently receiving a CCB alone, or receiving a CCB as part of their antihypertensive medication. […] The dose will not be changed for patients with adequate BP control. […] If the dose has been increased at Week 2, the patient will be reassessed at Week 6. The dose of study medication will not be changed for patients with adequate BP control. […] If BP is uncontrolled at Week 6 and the dose has been increased at Week 2 or Week 4, the patient must be withdrawn from the study. The dose of study medication will not be changed for patients with adequate BP control. If symptomatic hypotension (i.e., lightheadedness, dizziness, or syncope associated with low BP) occurs at any time during the study, or if DBP is ≧110 mmHg or SBP is ≧180 mmHg at any time during the study, the patient must be withdrawn. Patients will receive study medication for a total of eight weeks.
Patients will return to the clinic for evaluations at Weeks 0, 2, 4, 6, 8, and 9. Heart rate, BP, adverse events and concomitant medication will be assessed at each visit. Hematology and biochemistry evaluations and urinalysis for safety will be at Weeks 0, 8, and 9. Serum potassium levels will be determined at Weeks 0, 2, 4, 6, 8, and 9. Plasma renin, serum aldosterone, and plasma cortisol will be determined at Weeks 0 and 8. A 12-lead electrocardiogram and physical examination will be done at screening and at Week 9.
The treatment difference will be evaluated based on the mean change from baseline in seated trough cuff DBP at Week 8.
The mark [3] stands for this setting: CCB and eplerenone compared to CCB and placebo.
Setting [4] is: eplerenone plus CCB versus CCB plus placebo, eight weeks, hypertensive patients.

Turning to `COC(=O)[C@@H]1CC2=CC(=O)CC[C@]2(C)C23O[C@@H]2C[C@@]2(C)[C@@H](CC[C@@]24CCC(=O)O4)[C@H]13` (stereo partly drawn) [eplerenone, Pregn-4-ene-7,21-dicarboxylic acid, 9,11-epoxy-17-hydroxy-3-oxo-,γ-lactone, methyl ester, (7α,11α,17β)-], the cardiac performance entry in series [1] is “improvements in cardiac performance”. In series [2] (setting [3]), the Active renin levels result is listed as “greater increase” and the aldosterone levels result was “greater increase”. In addition, the serious adverse events entry in series [2] (eplerenone added to CCB therapy) is given as “no serious adverse events”. For the same compound, in series [2] (setting [4]), the “change in mean diastolic blood pressure” value is recorded as “greater for the dual therapy group, compared to monotherapy, but this difference did not reach statistical significance” and the “change in systolic blood pressure” value is “significant reduction”.
